The values that follow come from patent US11547697B2, “Heterocyclic compounds and uses thereof” (MILLENNIUM PHARMACEUTICALS, INC., priority 2009, dated 2023).

Read-outs that look alike come from different tables or passages of the source.

Common to all, as to type: biochemical
In test [1] the target is p110α/p85α (Homo sapiens (Human), UniProt P42336). Put plainly: PI 3-Kinase (human) HTRF assay, p110α/p85α. In general terms: TR-FRET usually uses a lanthanide donor and a delayed reading to cut background.
For test [2], the target named is p110β/p85α (Homo sapiens (Human), UniProt P42338). Put plainly: PI 3-Kinase (human) HTRF assay, p110β/p85α.
Test [3] deals with p110δ/p85α (Homo sapiens (Human), UniProt O00329). The experiment in a line: PI 3-Kinase (human) HTRF assay, p110δ/p85α.
For test [4], the target named is p110γ (Homo sapiens (Human), UniProt P48736). The experiment in a line: PI 3-Kinase (human) HTRF assay, p110γ.
[5] abbreviates: in vitro, read-out: PI3K α IC50.
Where [6] appears, read: in vitro, read-out: PI3K β IC50.
Where [7] appears, read: in vitro, read-out: PI3K δ IC50.
[8] abbreviates: in vitro, read-out: PI3K γ IC50.

p110α/p85α, sequence (P42336 whole entry): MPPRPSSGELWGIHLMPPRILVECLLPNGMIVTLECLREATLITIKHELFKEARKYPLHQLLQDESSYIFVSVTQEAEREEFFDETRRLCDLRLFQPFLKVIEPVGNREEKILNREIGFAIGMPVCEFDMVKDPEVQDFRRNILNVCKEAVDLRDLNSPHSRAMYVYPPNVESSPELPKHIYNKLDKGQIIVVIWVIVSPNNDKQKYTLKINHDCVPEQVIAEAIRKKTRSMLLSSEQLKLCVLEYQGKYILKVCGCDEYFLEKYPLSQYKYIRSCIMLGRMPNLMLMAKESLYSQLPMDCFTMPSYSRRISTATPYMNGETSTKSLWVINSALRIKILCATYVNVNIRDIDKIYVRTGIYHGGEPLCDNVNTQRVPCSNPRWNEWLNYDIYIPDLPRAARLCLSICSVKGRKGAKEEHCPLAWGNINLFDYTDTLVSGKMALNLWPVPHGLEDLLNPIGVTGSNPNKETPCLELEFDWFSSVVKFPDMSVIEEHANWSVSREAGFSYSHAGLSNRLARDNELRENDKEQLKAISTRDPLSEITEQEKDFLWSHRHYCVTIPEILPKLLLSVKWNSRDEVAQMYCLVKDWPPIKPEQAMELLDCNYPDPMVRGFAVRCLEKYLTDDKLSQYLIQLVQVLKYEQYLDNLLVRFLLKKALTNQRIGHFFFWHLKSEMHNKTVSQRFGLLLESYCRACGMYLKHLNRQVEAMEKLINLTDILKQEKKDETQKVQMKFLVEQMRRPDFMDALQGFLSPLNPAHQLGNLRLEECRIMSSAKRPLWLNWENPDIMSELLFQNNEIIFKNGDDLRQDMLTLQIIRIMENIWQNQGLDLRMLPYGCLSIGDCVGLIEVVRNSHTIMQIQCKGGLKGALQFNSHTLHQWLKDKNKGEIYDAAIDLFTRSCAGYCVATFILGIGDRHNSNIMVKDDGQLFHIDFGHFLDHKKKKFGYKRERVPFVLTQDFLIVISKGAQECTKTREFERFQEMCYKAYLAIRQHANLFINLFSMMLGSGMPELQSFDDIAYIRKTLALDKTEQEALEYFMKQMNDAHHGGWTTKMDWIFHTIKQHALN
p110α/p85α, sequence (P27986 whole entry partner): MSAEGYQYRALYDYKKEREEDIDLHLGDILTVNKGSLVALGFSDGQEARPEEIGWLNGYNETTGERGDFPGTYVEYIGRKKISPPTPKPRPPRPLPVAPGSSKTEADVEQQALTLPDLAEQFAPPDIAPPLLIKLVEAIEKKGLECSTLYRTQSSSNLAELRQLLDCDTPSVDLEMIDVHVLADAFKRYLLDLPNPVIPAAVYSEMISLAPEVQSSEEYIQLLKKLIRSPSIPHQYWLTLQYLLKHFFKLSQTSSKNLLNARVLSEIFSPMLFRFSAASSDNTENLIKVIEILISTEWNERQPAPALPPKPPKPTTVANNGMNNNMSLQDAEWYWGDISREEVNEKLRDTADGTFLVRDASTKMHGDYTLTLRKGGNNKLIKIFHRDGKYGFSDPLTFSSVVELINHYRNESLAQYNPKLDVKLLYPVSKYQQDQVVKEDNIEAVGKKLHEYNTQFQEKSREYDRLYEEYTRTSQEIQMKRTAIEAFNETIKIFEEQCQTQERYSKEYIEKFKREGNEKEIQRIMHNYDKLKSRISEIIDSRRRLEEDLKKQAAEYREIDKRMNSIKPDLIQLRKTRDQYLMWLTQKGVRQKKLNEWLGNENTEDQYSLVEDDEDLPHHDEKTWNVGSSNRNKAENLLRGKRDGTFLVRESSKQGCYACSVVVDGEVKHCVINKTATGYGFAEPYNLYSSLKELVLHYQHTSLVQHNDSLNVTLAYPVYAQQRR
p110δ/p85α, sequence (O00329 whole entry): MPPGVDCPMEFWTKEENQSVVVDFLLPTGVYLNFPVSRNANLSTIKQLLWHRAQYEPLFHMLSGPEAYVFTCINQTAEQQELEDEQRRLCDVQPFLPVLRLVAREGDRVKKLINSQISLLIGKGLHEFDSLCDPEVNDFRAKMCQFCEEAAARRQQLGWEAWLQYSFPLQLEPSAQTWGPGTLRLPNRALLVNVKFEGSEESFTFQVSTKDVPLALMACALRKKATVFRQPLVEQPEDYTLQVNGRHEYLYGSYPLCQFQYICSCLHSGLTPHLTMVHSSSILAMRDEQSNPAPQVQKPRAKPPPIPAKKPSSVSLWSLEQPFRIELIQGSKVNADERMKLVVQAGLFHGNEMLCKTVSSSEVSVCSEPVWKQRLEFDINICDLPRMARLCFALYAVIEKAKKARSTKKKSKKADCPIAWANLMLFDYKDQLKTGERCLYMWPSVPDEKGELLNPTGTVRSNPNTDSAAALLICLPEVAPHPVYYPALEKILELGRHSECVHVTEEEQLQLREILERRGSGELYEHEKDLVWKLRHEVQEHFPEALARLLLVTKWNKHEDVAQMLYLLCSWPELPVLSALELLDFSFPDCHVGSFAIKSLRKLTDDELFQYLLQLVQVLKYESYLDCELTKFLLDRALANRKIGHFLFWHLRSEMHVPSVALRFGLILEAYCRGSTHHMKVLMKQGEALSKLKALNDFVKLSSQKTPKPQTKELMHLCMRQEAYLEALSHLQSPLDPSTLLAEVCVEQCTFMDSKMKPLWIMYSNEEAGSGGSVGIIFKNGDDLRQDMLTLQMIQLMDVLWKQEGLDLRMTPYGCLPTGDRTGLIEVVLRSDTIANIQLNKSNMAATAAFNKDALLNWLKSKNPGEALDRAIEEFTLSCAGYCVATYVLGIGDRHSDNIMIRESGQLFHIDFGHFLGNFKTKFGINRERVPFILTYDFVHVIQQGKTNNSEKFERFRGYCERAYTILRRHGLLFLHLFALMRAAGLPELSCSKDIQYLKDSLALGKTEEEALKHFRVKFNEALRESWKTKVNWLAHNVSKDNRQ
p110δ/p85α, sequence (P27986 whole entry partner): as the sequence (P27986 whole entry partner) above
p110β/p85α, sequence (P42338 whole entry): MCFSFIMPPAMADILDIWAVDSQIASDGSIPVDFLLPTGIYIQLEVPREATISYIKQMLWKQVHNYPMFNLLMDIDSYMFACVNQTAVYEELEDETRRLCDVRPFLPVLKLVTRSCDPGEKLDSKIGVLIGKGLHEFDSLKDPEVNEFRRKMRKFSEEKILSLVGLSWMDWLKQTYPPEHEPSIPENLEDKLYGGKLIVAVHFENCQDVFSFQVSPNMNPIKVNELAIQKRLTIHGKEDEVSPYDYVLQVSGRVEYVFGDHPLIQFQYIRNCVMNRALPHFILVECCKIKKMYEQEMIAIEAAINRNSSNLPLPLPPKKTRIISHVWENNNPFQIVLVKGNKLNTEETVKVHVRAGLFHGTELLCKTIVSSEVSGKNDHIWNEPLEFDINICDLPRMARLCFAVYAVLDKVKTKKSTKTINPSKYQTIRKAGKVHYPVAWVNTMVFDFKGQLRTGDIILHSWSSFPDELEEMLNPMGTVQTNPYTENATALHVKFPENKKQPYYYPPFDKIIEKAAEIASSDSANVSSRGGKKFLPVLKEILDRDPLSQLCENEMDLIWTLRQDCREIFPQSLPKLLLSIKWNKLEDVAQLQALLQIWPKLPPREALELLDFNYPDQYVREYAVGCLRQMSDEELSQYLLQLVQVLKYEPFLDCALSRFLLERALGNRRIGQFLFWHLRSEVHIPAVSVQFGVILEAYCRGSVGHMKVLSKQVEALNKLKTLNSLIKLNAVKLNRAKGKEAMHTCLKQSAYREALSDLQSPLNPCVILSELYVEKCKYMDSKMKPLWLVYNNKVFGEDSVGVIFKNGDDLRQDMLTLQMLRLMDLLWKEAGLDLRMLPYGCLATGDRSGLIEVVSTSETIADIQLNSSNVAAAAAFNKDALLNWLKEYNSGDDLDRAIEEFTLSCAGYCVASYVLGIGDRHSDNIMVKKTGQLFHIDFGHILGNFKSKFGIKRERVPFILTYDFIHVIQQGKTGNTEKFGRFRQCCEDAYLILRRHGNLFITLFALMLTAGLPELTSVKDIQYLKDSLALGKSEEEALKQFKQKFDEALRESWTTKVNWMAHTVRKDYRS
p110β/p85α, sequence (P27986 whole entry partner): as the sequence (P27986 whole entry partner) above
p110γ, sequence (P48736 whole entry): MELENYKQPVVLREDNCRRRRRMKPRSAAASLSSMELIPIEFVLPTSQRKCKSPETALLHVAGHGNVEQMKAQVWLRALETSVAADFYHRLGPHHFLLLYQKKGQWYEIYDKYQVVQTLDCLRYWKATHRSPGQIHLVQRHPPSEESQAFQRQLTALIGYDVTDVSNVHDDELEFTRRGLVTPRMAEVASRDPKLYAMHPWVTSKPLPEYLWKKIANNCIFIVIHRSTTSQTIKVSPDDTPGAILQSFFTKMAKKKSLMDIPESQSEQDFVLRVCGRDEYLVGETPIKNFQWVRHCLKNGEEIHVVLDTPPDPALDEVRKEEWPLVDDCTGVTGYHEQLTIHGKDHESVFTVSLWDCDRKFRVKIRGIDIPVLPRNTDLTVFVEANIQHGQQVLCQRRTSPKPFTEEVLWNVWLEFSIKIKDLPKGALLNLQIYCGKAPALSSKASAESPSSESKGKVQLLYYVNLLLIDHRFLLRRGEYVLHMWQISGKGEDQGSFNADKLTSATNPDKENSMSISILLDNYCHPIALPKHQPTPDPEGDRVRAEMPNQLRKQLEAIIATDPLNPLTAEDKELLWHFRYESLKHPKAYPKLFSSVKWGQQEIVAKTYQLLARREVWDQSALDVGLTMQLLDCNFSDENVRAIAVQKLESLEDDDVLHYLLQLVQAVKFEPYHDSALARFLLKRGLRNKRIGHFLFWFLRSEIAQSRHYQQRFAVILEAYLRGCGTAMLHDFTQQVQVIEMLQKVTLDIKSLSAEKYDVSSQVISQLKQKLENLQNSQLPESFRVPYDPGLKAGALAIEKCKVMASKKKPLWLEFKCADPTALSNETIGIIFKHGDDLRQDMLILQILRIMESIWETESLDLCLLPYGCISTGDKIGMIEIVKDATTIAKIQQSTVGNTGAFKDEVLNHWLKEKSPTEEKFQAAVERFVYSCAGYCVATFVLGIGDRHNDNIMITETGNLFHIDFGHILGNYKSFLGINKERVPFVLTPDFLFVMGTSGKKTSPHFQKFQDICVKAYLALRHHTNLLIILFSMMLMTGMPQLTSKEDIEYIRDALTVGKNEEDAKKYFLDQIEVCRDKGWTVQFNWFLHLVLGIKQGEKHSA

As a reminder, the IC50 is the concentration that gives 50% inhibition. Consider `Cc1nccn1C1CCN(c2cnc3ccc(-c4ccc5oc(N)nc5c4)cc3n2)CC1` [compound 344], for which the IC50 in test [1] (setting [5]) was less than 100 nM; in test [2] (setting [6]), less than 10000 nM; in test [3] (setting [7]) it was less than 1000 nM; in test [4] (setting [8]) it was less than 10000 nM.
Take `Nc1nc2cc(-c3ccc4ncc(N5CC(n6ccnc6)C5)nc4c3)ccc2o1` [compound 319]: the IC50 in test [1] (setting [5]) was less than 100 nM; in test [2] (setting [6]), less than 1000 nM; in test [3] (setting [7]), less than 10000 nM; in test [4] (setting [8]), less than 1000 nM.
Consider `CN1CCN(C2CCN(c3cnc4ccc(-c5ccc6oc(N)nc6c5)cc4n3)CC2)CC1` [compound 227], for which the 50% inhibitory concentration (IC50) is less than 100 nM in test [1] (setting [5]), less than 1000 nM in test [2] (setting [6]), less than 100 nM in test [3] (setting [7]) and less than 10000 nM in test [4] (setting [8]).
Turning to `Nc1nc2cc(-c3ccc4ncn(CCN5CCCC5)c(=O)c4c3)ccc2o1` [compound 255], the IC50 in test [1] (setting [5]), in test [2] (setting [6]), in test [3] (setting [7]) and in test [4] (setting [8]) was less than 10000 nM each time.
`Cn1cc(-c2cnc3ccc(-c4ccc5oc(N)nc5c4)cc3n2)cn1` [compound 94]: the IC50 in test [1] (read-out: PI3K α IC50) is less than 100 nM; in test [2] (read-out: PI3K β IC50), less than 1000 nM; in test [3] (read-out: PI3K δ IC50), less than 10000 nM; in test [4] (read-out: PI3K γ IC50), less than 100 nM.
As for `Nc1nc2cc(-c3ccc4ncc(N5CCN(C(=O)[C@H]6CCCN6)CC5)nc4c3)ccc2o1` [compound 225], the IC50 in test [1] (setting [5]), in test [2] (setting [6]), in test [3] (setting [7]) and in test [4] (setting [8]) was less than 100 nM in each case.
With `CN1CCN(C(=O)C2CN(c3cnc4ccc(-c5ccc6oc(N)nc6c5)cc4n3)C2)CC1` [compound 253], the IC50 in test [2] (setting [6]), in test [3] (setting [7]) and in test [4] (setting [8]) was less than 10000 nM in each case.
On to `Nc1nc2cc(-c3ccc4nccc(-c5cn[nH]c5)c4c3)ccc2o1` [compound 20], for which the half-maximal inhibitory concentration (IC50) in test [1] (read-out: PI3K α IC50), in test [2] (read-out: PI3K β IC50) and in test [3] (read-out: PI3K δ IC50) was less than 100 nM each time.
As for `Nc1nc2cc(-c3ccc4ncn(CCCN5CCCC5)c(=O)c4c3)ccc2o1` [compound 271], the IC50 was less than 1000 nM in test [1] (setting [5]), less than 10000 nM in test [2] (setting [6]) and less than 10000 nM in test [3] (setting [7]).
As for `Nc1nc2cc(-c3ccc4ncc(C(=O)NCCN5CCCC5)n4c3)ccc2o1` [compound 296], the 50% inhibitory concentration (IC50) in test [1] (setting [5]) is less than 1000 nM; in test [2] (setting [6]), less than 10000 nM; in test [3] (setting [7]), less than 1000 nM.
As for `Nc1nc2cc(-c3ccc4ncc(C(=O)N5CC(N6CCC(F)(F)C6)C5)n4c3)ccc2o1` [compound 502], the IC50 is less than 100 nM in test [1] (read-out: PI3K α In Vitro IC50), less than 10000 nM in test [3] (read-out: PI3K δ In Vitro IC50) and less than 1000 nM in test [4] (read-out: PI3K γ In Vitro IC50).
For the compound `CC1(C)CN(c2cnc3ccc(-c4ccc5oc(N)nc5c4)cc3n2)CCN1` [compound 336], the IC50 in test [1] (setting [5]) is less than 1000 nM; in test [2] (setting [6]), less than 1000 nM; in test [3] (setting [7]) it was less than 10000 nM.
Turning to `Cc1c(-c2ccc3oc(N)nc3c2)ccc2ncc(N3CCN[C@@H](C)C3)nc12` [compound 374], the IC50 is less than 1000 nM in test [1] (setting [5]), less than 100 nM in test [2] (setting [6]) and less than 10000 nM in test [3] (setting [7]).
In the case of `O=C(c1cnc2ccc(-c3cncc(NS(=O)(=O)c4ccc(F)cc4F)c3)cn12)N1CCOCC1` [compound 425], the values for the IC50 in test [1] (read-out: PI3K α In Vitro IC50), in test [3] (read-out: PI3K δ In Vitro IC50) and in test [4] (read-out: PI3K γ In Vitro IC50) were less than 100 nM, less than 1000 nM and less than 100 nM, respectively.
In the case of `Nc1nc2cc(-c3ccc4ncnc(N5CCC(O)CC5)c4c3)ccc2o1` [compound 29], the IC50 in test [1] (read-out: PI3K α IC50), in test [3] (read-out: PI3K δ IC50) and in test [4] (read-out: PI3K γ IC50) was less than 100 nM in each case.
As to `O=C(c1cnc2ccc(-c3cnc4[nH]ncc4c3)cn12)N1CCOCC1` [compound 492], the IC50 in test [2] (read-out: PI3K β In Vitro IC50), in test [3] (read-out: PI3K δ In Vitro IC50) and in test [4] (read-out: PI3K γ In Vitro IC50) was less than 10000 nM each time.
`O=C(c1cnc2ccc(-c3cccc(NS(=O)(=O)c4ccc(F)cc4F)c3)cn12)N1CCOCC1` [compound 454]: the IC50 in test [1] (read-out: PI3K α In Vitro IC50), in test [3] (read-out: PI3K δ In Vitro IC50) and in test [4] (read-out: PI3K γ In Vitro IC50) was less than 10000 nM in each case.
Regarding `Nc1nc2cc(-c3ccc4ncc(N5CCN(C(=O)C6(N)CC6)CC5)nc4c3)ccc2o1` [compound 226], the IC50 in test [1] (setting [5]) is less than 1000 nM; in test [3] (setting [7]), less than 10000 nM; in test [4] (setting [8]) it was less than 10000 nM.
On to `Nc1nc2cc(-c3ccc4ncc(C(=O)N5CC(n6cccn6)C5)n4c3)ccc2o1` [compound 479], for which the IC50 in test [1] (read-out: PI3K α In Vitro IC50) was less than 100 nM; in test [3] (read-out: PI3K δ In Vitro IC50) it was less than 10000 nM; in test [4] (read-out: PI3K γ In Vitro IC50), less than 1000 nM.
With `CN1CCC(Oc2ncnc3ccc(-c4ccc5oc(N)nc5c4)cc23)CC1` [compound 34], the results for the IC50 in test [1] (read-out: PI3K α IC50), in test [3] (read-out: PI3K δ IC50) and in test [4] (read-out: PI3K γ IC50) were less than 100 nM, less than 1000 nM and less than 100 nM, respectively.
On to `CN1CCN(c2cc(-c3cnc4ccc(-c5ccc6oc(N)nc6c5)cn34)ccn2)CC1` [compound 43], for which the half-inhibitory concentration (IC50) in test [1] (read-out: PI3K α IC50), in test [3] (read-out: PI3K δ IC50) and in test [4] (read-out: PI3K γ IC50) was less than 100 nM in each case.
